Experimental data from patent US9617271B2, “Triazolo compounds” (Hoffmann-La Roche Inc., priority 2012, dated 2017).

target: human PDE10A (Homo sapiens (Human), UniProt Q9Y233); test: human PDE10A full length assay ([3H]-cGMP SPA); type: biochemical; settings: human PDE10A full length enzyme, 50 nM cGMP + 50 nM [3H]-cGMP, 20 minutes at room temperature; read-out: PDE10A inhibition IC50
Description: The human PDE10A full length assay was performed in 96-well micro titer plates. The reaction mixture of 50 μl contained 20 mM HEPES pH=7.5/10 mM MgCl2/0.05 mg/ml BSA (Sigma cat. #A-7906), 50 nM cGMP (Sigma, cat. #G6129) and 50 nM [3H]-cGMP (GE Healthcare, cat. #TRK392 S.A. 13.2 Ci/mmol), 3.75 ng/well PDE10A enzyme (Enzo Life Science, Lausen, Switzerland cat #SE-534) with or without a specific test compound. A range of concentrations of the potential inhibitor was used to generate data for calculating the concentration of inhibitor resulting in 50% of the effect (e.g. IC50, the concentration of the competitor inhibiting PDE10A activity by 50%). Non-specific activity was tested without the enzyme. The reaction was initiated by the addition of the substrate solution (cGMP and [3H]-cGMP) and allowed to progress for 20 minutes at room temperature. The reaction was terminated by adding 25 μl of YSi-SPA scintillation beads (GE Healthcare, cat. #RPNQ0150) in 18 mM zinc sulphate solution (stop reagent). After 1 h under shaking, the plate was centrifuged one minute at 170 g to allow beads to settle. Afterwards, radioactive counts were measured on a Perkin Elmer TopCount Scintillation plate reader.

Chain of human PDE10A (Q9Y233 other isoform, or with tags, fused parts or gaps): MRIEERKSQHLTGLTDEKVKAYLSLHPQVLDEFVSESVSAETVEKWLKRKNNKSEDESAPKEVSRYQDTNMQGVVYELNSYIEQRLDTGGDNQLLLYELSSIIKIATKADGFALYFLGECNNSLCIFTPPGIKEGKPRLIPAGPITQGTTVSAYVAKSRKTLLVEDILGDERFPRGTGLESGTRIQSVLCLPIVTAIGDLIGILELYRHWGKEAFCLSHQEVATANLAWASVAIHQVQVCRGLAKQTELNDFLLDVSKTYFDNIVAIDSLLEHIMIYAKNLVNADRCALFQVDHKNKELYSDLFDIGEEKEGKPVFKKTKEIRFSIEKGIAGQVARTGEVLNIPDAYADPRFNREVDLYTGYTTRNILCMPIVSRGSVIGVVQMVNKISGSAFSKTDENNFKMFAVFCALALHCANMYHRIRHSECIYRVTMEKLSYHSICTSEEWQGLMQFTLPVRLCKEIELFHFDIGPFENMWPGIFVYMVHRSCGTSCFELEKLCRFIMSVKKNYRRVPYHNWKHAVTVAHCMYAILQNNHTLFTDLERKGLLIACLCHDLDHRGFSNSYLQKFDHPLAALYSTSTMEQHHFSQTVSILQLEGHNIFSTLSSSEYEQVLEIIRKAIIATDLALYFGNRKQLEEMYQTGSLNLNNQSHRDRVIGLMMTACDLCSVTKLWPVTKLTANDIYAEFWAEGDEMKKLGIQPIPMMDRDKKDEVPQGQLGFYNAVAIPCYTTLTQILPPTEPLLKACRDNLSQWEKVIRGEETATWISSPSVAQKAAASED

Row | Compound | IC50 [nM]
1 | Cc1cc2nc(C)c(C)n2nc1C#Cc1nc(N2CCCC2)nn1C [Example 17, 2,3,7-Trimethyl-6-((1-methyl-3-(pyrrolidin-1-yl)-1H-1,2,4-triazol-5-yl)ethynyl)imidazo[1,2-b]pyridazine] | 1
2 | COc1cc2nc(C)c(C)n2nc1C#Cc1nc(N2CCCC2)nn1C [Example 60, 7-Methoxy-2,3-dimethyl-6-((1-methyl-3-(pyrrolidin-1-yl)-1H-1,2,4-triazol-5-yl)ethynyl)imidazo[1,2-b]pyridazine] | 2.7
3 | N-Ethyl-6,7-dimethyl-2-(2-(1-methyl-3-(pyrrolidin-1-yl)-1H-1,2,4-triazol-5-yl)ethyl)-imidazo[1,2-f][1,2,4]triazin-4-amine [Example 32] | 6
4 | Cc1nc2cc(C(F)(F)F)c(C#Cc3nc(N4CCCC4)nn3C)nn2c1C [Example 42, 2,3-Dimethyl-6-((1-methyl-3-(pyrrolidin-1-yl)-1H-1,2,4-triazol-5-yl)ethynyl)-7-(trifluoro-methyl)imidazo[1,2-b]pyridazine] | 11
5 | CNC(=O)c1cc(CCc2nc(N3CCCC3)nn2C)nn2c(C)c(C)nc12 [Example 41, N,2,3-Trimethyl-6-(2-(1-methyl-3-(pyrrolidin-1-yl)-1H-1,2,4-triazol-5-yl)ethyl)imidazo-[1,2-b]pyridazine-8-carboxamide] | 2
6 | Cc1nc2c(O)nc(CCc3nc(N4CCCC4)nn3C)nn2c1C [Example 11, 6,7-Dimethyl-2-(2-(1-methyl-3-(pyrrolidin-1-yl)-1H-1,2,4-triazol-5-yl)ethyl)imidazo[1,2-f][1,2,4]triazin-4-ol] | 225
7 | Cn1nc(N2CCCC2)nc1CCc1ccc2nc3c(n2n1)CCC3 [Example 14, 5-[2-(2-Methyl-5-pyrrolidin-1-yl-2H-[1,2,4]triazol-3-yl)-ethyl]-2,3-dihydro-1H-3b,4,8-triaza-cyclopenta[a]indene] | 41
8 | Cc1nc2c(N3CCCC3)cc(CCc3nc(N4CCCC4)nn3C)nn2c1C [Example 19, 2,3-Dimethyl-6-(2-(1-methyl-3-(pyrrolidin-1-yl)-1H-1,2,4-triazol-5-yl)ethyl)-8-(pyrro-lidin-1-yl)imidazo[1,2-b]pyridazine] | 5
9 | Cc1nc2c(C3CC3)cc(C#Cc3nc(N4CCCC4)nn3C)nn2c1C [Example 46, 8-Cyclopropyl-2,3-dimethyl-6-((1-methyl-3-(pyrrolidin-1-yl)-1H-1,2,4-triazol-5-yl)ethynyl)imidazo[1,2-b]pyridazine] | 1
10 | Cc1cc2nc(C)c(C)n2nc1CCc1nc(N2CCCC2)nn1C [Example 18, 2,3,7-Trimethyl-6-(2-(1-methyl-3-(pyrrolidin-1-yl)-1H-1,2,4-triazol-5-yl)ethyl)imidazo[1,2-b]pyridazine] | 195
11 | Cc1c(C(F)(F)F)nc2c(OCC(F)(F)F)cc(CCc3nc(N4CCCC4)nn3C)nn12 [Example 63, 3-Methyl-6-(2-(1-methyl-3-(pyrrolidin-1-yl)-1H-1,2,4-triazol-5-yl)ethyl)-8-(2,2,2-trifluoroethoxy)-2-(trifluoromethyl)imidazo[1,2-b]pyridazine] | 9.4
12 | Cc1c(C(F)(F)F)nn2ccc(CCc3nc(N4CCCC4)nn3C)nc12 [Example 72, 3-methyl-5-(2-(1-methyl-3-(pyrrolidin-1-yl)-1H-1,2,4-triazol-5-yl)ethyl)-2-(trifluoromethyl)pyrazolo[1,5-a]pyrimidine] | 32.9
13 | Cc1nc2c(S(C)(=O)=O)cc(CCc3nc(N4CCCC4)nn3C)nn2c1C [Example 33, 2,3-Dimethyl-6-(2-(1-methyl-3-(pyrrolidin-1-yl)-1H-1,2,4-triazol-5-yl)ethyl)-8-(methyl-sulfonyl)imidazo[1,2-b]pyridazine] | 41
14 | Cc1c(C(F)(F)F)nc2ccc(C#Cc3nc(N4CCCC4)n(C)n3)nn12 [Example 4, 3-Methyl-6-((1-methyl-5-(pyrrolidin-1-yl)-1H-1,2,4-triazol-3-yl)ethynyl)-2-(trifluoromethyl)imidazo[1,2-b]pyridazine] | 4
15 | CNC(=O)c1cc(CCc2nc(N3CCCC3)nn2C)nn2c(C)c(C(F)(F)F)nc12 [Example 70, N,3-dimethyl-6-(2-(1-methyl-3-(pyrrolidin-1-yl)-1H-1,2,4-triazol-5-yl)ethyl)-2-(trifluoromethyl)imidazo[1,2-b]pyridazine-8-carboxamide] | 13.7
16 | Cc1c(Cl)nc2ccc(CCc3nc(N4CCCC4)nn3C)nn12 [Example 64, 2-Chloro-3-methyl-6-(2-(1-methyl-3-(pyrrolidin-1-yl)-1H-1,2,4-triazol-5-yl)ethyl)imidazo[1,2-b]pyridazine] | 5.5

Row | Compound | IC50 [nM]
17 | Cc1c(C(F)(F)F)nc2ccc(CCc3nc(N4CCCC4)n(C)n3)nn12 [Example 6, 3-Methyl-6-(2-(1-methyl-5-(pyrrolidin-1-yl)-1H-1,2,4-triazol-3-yl)ethyl)-2-(trifluoromethyl)imidazo[1,2-b]pyridazine] | 19
18 | Cc1nc2c(C3CCC3)cc(C#Cc3nc(N4CCCC4)nn3C)nn2c1C [Example 47, 8-Cyclobutyl-2,3-dimethyl-6-((1-methyl-3-(pyrrolidin-1-yl)-1H-1,2,4-triazol-5-yl)ethynyl)imidazo[1,2-b]pyridazine] | 0.9
19 | Cc1nc2c3c(c(CCc4nc(N5CCCC5)nn4C)nn2c1C)CCCC3 [Example 24, 2,3-Dimethyl-6-(2-(1-methyl-3-(pyrrolidin-1-yl)-1H-1,2,4-triazol-5-yl)ethyl)-7,8,9,10-tetrahydroimidazo[2,1-a]phthalazine] | 6
20 | CNC(=O)c1cc(C#Cc2nc(N3CCCC3)nn2C)nn2c(C)c(C)nc12 [Example 40, N,2,3-Trimethyl-6-((1-methyl-3-(pyrrolidin-1-yl)-1H-1,2,4-triazol-5-yl)ethynyl)imidazo-[1,2-b]pyridazine-8-carboxamide] | 1
21 | Cc1nc2ccc(CCc3nc(N4CCCC4)nn3C)nn2c1Cl [Example 66, 3-Chloro-2-methyl-6-(2-(1-methyl-3-(pyrrolidin-1-yl)-1H-1,2,4-triazol-5-yl)ethyl)imidazo[1,2-b]pyridazine] | 14.5
22 | Cc1c(C#N)nc2ccc(CCc3nc(N4CCCC4)nn3C)nn12 [Example 5, 3-Methyl-6-[2-(2-methyl-5-pyrrolidin-1-yl-2H-[1,2,4]triazol-3-yl)-ethyl]-imidazo[1,2-b]pyridazine-2-carbonitrile] | 21
23 | Cc1nc2ccc(SCc3nc(N4CCCC4)nn3C)nn2c1C [Example 28, 2,3-Dimethyl-6-((1-methyl-3-(pyrrolidin-1-yl)-1H-1,2,4-triazol-5-yl)methylthio)-imidazo[1,2-b]pyridazine] | 568
24 | Cc1c(C(F)(F)F)nc2c(OCC(F)(F)F)cc(C#Cc3nc(N4CCCC4)nn3C)nn12 [Example 62, 3-Methyl-6-((1-methyl-3-(pyrrolidin-1-yl)-1H-1,2,4-triazol-5-yl)ethynyl)-8-(2,2,2-trifluoroethoxy)-2-(trifluoromethyl)imidazo[1,2-b]pyridazine] | 3
25 | Cc1c(C(F)F)nc2ccc(CCc3nc(N4CCCC4)nn3C)nn12 [Example 8, 2-(Difluoromethyl)-3-methyl-6-(2-(1-methyl-3-(pyrrolidin-1-yl)-1H-1,2,4-triazol-5-yl)ethyl)imidazo[1,2-b]pyridazine] | 8
26 | Cc1cn2nc(C)c(C)c2nc1CCc1nc(N2CCCC2)nn1C [Example 61, 2,3,6-Trimethyl-5-(2-(1-methyl-3-(pyrrolidin-1-yl)-1H-1,2,4-triazol-5-yl)ethyl)pyrazolo[1,5-a]pyrimidine] | 76
27 | CNC(=O)c1cc2nc(C)c(C)n2nc1C#Cc1nc(N2CCCC2)nn1C [Example 39, N,2,3-Trimethyl-6-((1-methyl-3-(pyrrolidin-1-yl)-1H-1,2,4-triazol-5-yl)ethynyl)imidazo[1,2-b]pyridazine-7-carboxamide] | 1400
28 | Cc1nc2c(OC(C)C)cc(C#Cc3nc(N4CCCC4)nn3C)nn2c1C [Example 25, 8-Isopropoxy-2,3-dimethyl-6-((1-methyl-3-(pyrrolidin-1-yl)-1H-1,2,4-triazol-5-yl)ethynyl)imidazo[1,2-b]pyridazine] | 1
29 | Cc1nc2c(OC(C)C)cc(CCc3nc(N4CCCC4)nn3C)nn2c1C [Example 27, 8-Isopropoxy-2,3-dimethyl-6-(2-(1-methyl-3-(pyrrolidin-1-yl)-1H-1,2,4-triazol-5-yl)ethyl)imidazo[1,2-b]pyridazine] | 3
30 | Cn1nc(N2CCCC2)nc1CCc1ccc2nc(Cl)cn2n1 [Example 37, 2-Chloro-6-(2-(1-methyl-3-(pyrrolidin-1-yl)-1H-1,2,4-triazol-5-yl)ethyl)imidazo[1,2-b]pyridazine] | 338
31 | Cc1nc2c(C(C)C)cc(CCc3nc(N4CCCC4)nn3C)nn2c1C [Example 45, 8-Isopropyl-2,3-dimethyl-6-(2-(1-methyl-3-(pyrrolidin-1-yl)-1H-1,2,4-triazol-5-yl)ethyl)-imidazo[1,2-b]pyridazine] | 9
32 | Cc1nc2c(C)cc(CCc3nc(N4CCCC4)nn3C)nn2c1C [Example 16, 2,3,8-trimethyl-6-(2-(1-methyl-3-(pyrrolidin-1-yl)-1H-1,2,4-triazol-5-yl)ethyl)-imidazo[1,2-b]pyridazine] | 2
